# From PubChem BioAssay AID1963852 (Molecular Pharmacology Branch, DTP, NCI, 2024)
# Tested on: 282377-053-R-J1-PDC complex spheroid viability
# Assay: Anticancer human tumor 282377-053-R-J1-PDC patient-derived colon adenocarcinoma cell line growth inhibition [POLQ]
# Details: for IC50: curve of first compound; for viability, T/C: stronger effect = lower value
# Method in brief: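 Three-cell-type spheroids modelling solid tumor plus stroma served as the readout system; POL inhibitors were tested individually and in combination, concentration ranges set by clinical Cmax where known.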
# [1] = second compound 0.0316 µM, first compound 0.0316 µM
# [2] = second compound 0.0316 µM, first compound 0.1 µM
# [3] = second compound 0.0316 µM, first compound 0.316 µM
# [4] = second compound 0.0316 µM, first compound 1 µM
# [5] = second compound 0.0316 µM, first compound 3.16 µM
# [6] = second compound 0.0316 µM, first compound 10 µM
# [7] = second compound 0.1 µM, first compound 0.0316 µM
# [8] = second compound 0.1 µM, first compound 0.1 µM
# [9] = second compound 0.1 µM, first compound 0.316 µM
# [10] = second compound 0.1 µM, first compound 1 µM
# [11] = second compound 0.1 µM, first compound 3.16 µM
# [12] = second compound 0.1 µM, first compound 10 µM
# [13] = second compound 0.316 µM, first compound 0.0316 µM
# [14] = second compound 0.316 µM, first compound 0.1 µM
# [15] = second compound 0.316 µM, first compound 0.316 µM
# [16] = second compound 0.316 µM, first compound 1 µM
# [17] = second compound 0.316 µM, first compound 3.16 µM
# [18] = second compound 0.316 µM, first compound 10 µM
# [19] = second compound 1 µM, first compound 0.0316 µM
# [20] = second compound 1 µM, first compound 0.1 µM
# [21] = second compound 1 µM, first compound 0.316 µM
# [22] = second compound 1 µM, first compound 1 µM
# [23] = second compound 1 µM, first compound 3.16 µM
# [24] = second compound 1 µM, first compound 10 µM
# [25] = second compound 3.16 µM, first compound 0.0316 µM
# [26] = second compound 3.16 µM, first compound 0.1 µM
# [27] = second compound 3.16 µM, first compound 0.316 µM
# [28] = second compound 3.16 µM, first compound 1 µM
# [29] = second compound 3.16 µM, first compound 3.16 µM
# [30] = second compound 3.16 µM, first compound 10 µM
# [31] = second compound 10 µM, first compound 0.0316 µM
# [32] = second compound 10 µM, first compound 0.1 µM
# [33] = second compound 10 µM, first compound 0.316 µM
# [34] = second compound 10 µM, first compound 1 µM
# [35] = second compound 10 µM, first compound 3.16 µM
# [36] = second compound 10 µM, first compound 10 µM
# 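Further: spheroids exposed to compounds for seven days.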
# 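Wherever viability, T/C is given: 100% = DMSO vehicle control viability.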
smiles,measurement,setting,value
COc1ccc([C@@H](O)c2cc(-c3ncnc4cc(N5CCOCC5)ccc34)c(F)cc2Cl)nn1 + Cc1cccc(N(C)C(=O)C2C(O)CCN2c2nc(C)cc(C(F)(F)F)c2C#N)c1,IC50,second compound 0.0316 µM,> 10 µM
same,IC50,second compound 0.1 µM,> 10 µM
same,IC50,second compound 0.316 µM,> 10 µM
same,IC50,second compound 1 µM,> 10 µM
same,IC50,second compound 3.16 µM,> 10 µM
same,IC50,second compound 10 µM,> 10 µM
same,"viability, T/C",[1],104%
same,"viability, T/C",[2],115%
same,"viability, T/C",[3],108%
same,"viability, T/C",[4],103%
same,"viability, T/C",[5],78.3%
same,"viability, T/C",[6],62.4%
same,"viability, T/C",[7],106%
same,"viability, T/C",[8],106%
same,"viability, T/C",[9],89.1%
same,"viability, T/C",[10],110%
same,"viability, T/C",[11],72.2%
same,"viability, T/C",[12],75.1%
same,"viability, T/C",[13],110%
same,"viability, T/C",[14],90%
same,"viability, T/C",[15],97.6%
same,"viability, T/C",[16],93.1%
same,"viability, T/C",[17],102%
same,"viability, T/C",[18],62.2%
same,"viability, T/C",[19],111%
same,"viability, T/C",[20],80.1%
same,"viability, T/C",[21],97.7%
same,"viability, T/C",[22],83.2%
same,"viability, T/C",[23],103%
same,"viability, T/C",[24],53.1%
same,"viability, T/C",[25],122%
same,"viability, T/C",[26],98.9%
same,"viability, T/C",[27],108%
same,"viability, T/C",[28],87.8%
same,"viability, T/C",[29],101%
same,"viability, T/C",[30],68.5%
same,"viability, T/C",[31],87.9%
same,"viability, T/C",[32],87.6%
same,"viability, T/C",[33],109%
same,"viability, T/C",[34],76.6%
same,"viability, T/C",[35],64.3%
same,"viability, T/C",[36],54.3%
COc1cc2cc(C(=O)CCC(=O)O)sc2cc1OC + Nc1ccc(C#CCN(C(=O)Cc2ncc(C(F)(F)F)cc2C(F)(F)F)c2ccc(F)cc2)nn1,IC50,second compound 0.0316 µM,> 10 µM
same,IC50,second compound 0.1 µM,> 10 µM
same,IC50,second compound 0.316 µM,> 10 µM
same,IC50,second compound 1 µM,> 10 µM
same,IC50,second compound 3.16 µM,> 10 µM
same,IC50,second compound 10 µM,> 10 µM
same,"viability, T/C",[1],92.5%
same,"viability, T/C",[2],94.8%
same,"viability, T/C",[3],115%
same,"viability, T/C",[4],102%
same,"viability, T/C",[5],92.2%
same,"viability, T/C",[6],95.2%
same,"viability, T/C",[7],112%
same,"viability, T/C",[8],105%
same,"viability, T/C",[9],81.5%
same,"viability, T/C",[10],102%
same,"viability, T/C",[11],94.5%
same,"viability, T/C",[12],125%
same,"viability, T/C",[13],103%
same,"viability, T/C",[14],95.3%
same,"viability, T/C",[15],89.9%
same,"viability, T/C",[16],87.3%
same,"viability, T/C",[17],102%
same,"viability, T/C",[18],79.9%
same,"viability, T/C",[19],103%
same,"viability, T/C",[20],84.5%
same,"viability, T/C",[21],94%
same,"viability, T/C",[22],104%
same,"viability, T/C",[23],107%
same,"viability, T/C",[24],97.3%
same,"viability, T/C",[25],109%
same,"viability, T/C",[26],112%
same,"viability, T/C",[27],103%
same,"viability, T/C",[28],112%
same,"viability, T/C",[29],100%
same,"viability, T/C",[30],90.1%
same,"viability, T/C",[31],126%
same,"viability, T/C",[32],116%
same,"viability, T/C",[33],123%
same,"viability, T/C",[34],107%
same,"viability, T/C",[35],117%
same,"viability, T/C",[36],104%
COc1cc2cc(C(=O)CCC(=O)O)sc2cc1OC + COC1C(OC(N)=O)C(O)C(Oc2ccc3c(O)c(NC(=O)c4ccc(O)c(CC=C(C)C)c4)c(=O)oc3c2C)OC1(C)C,IC50,second compound 0.0316 µM,> 10 µM
same,IC50,second compound 0.1 µM,> 10 µM
same,IC50,second compound 0.316 µM,> 10 µM
same,IC50,second compound 1 µM,> 10 µM
same,IC50,second compound 3.16 µM,> 10 µM
same,IC50,second compound 10 µM,> 10 µM
same,"viability, T/C",[1],118%
same,"viability, T/C",[2],103%
same,"viability, T/C",[3],128%
same,"viability, T/C",[4],104%
same,"viability, T/C",[5],113%
same,"viability, T/C",[6],99.3%
same,"viability, T/C",[7],105%
same,"viability, T/C",[8],105%
same,"viability, T/C",[9],116%
same,"viability, T/C",[10],107%
same,"viability, T/C",[11],99.1%
same,"viability, T/C",[12],88.3%
same,"viability, T/C",[13],121%
same,"viability, T/C",[14],102%
same,"viability, T/C",[15],83.1%
same,"viability, T/C",[16],105%
same,"viability, T/C",[17],86.9%
same,"viability, T/C",[18],93.2%
same,"viability, T/C",[19],109%
same,"viability, T/C",[20],97.1%
same,"viability, T/C",[21],109%
same,"viability, T/C",[22],97.1%
same,"viability, T/C",[23],114%
same,"viability, T/C",[24],86.6%
same,"viability, T/C",[25],111%
same,"viability, T/C",[26],87.3%
same,"viability, T/C",[27],119%
same,"viability, T/C",[28],99.5%
same,"viability, T/C",[29],86.7%
same,"viability, T/C",[30],115%
same,"viability, T/C",[31],99%
same,"viability, T/C",[32],93.7%
same,"viability, T/C",[33],117%
same,"viability, T/C",[34],115%
same,"viability, T/C",[35],105%
same,"viability, T/C",[36],123%
